Source: patent US12110288B2, “MASP-2 inhibitors and methods of use” (Omeros Corporation, priority 2019, dated 2024)
Where a name gives a salt, the structure may show the parent alone.

Biological target: T1, MASP-2 (CCP1-CCP2-SP) (Homo sapiens, UniProt O00187)
T1 construct: 15 μL of Enzyme MASP-2 (CCP1-CCP2-SP) in Assay Buffer
Experiment: Enzymatic Assay for MASP-2
Assay type: biochemical
Settings: fluorogenic substrate based on C2 cleavage site, room temperature, 20 mM HEPES pH 7.4
Method in brief: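 Fluorogenic substrate modelled on the C2 cleavage site, run at room temperature in 20 mM HEPES pH 7.4, 140 mM NaCl, 0.1% Tween 20; compounds were added from DMSO serial dilutions before enzyme and substrate. Reactions ran 20 min and were stopped with 0.1 M acetic acid before fluorescence was read. % activity was normalised to DMSO-only and no-enzyme controls; IC50 was taken as Ki, with tight- or slow-binding inhibitors handled separately.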

T1 sequence (O00187 445-686 limits assumed): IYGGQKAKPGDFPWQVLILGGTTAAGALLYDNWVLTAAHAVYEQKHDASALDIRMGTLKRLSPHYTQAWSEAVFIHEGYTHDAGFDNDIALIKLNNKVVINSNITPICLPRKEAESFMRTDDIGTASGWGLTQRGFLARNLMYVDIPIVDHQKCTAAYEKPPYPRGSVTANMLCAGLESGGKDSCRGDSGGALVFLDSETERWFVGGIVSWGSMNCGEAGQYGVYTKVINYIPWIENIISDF
T1 sequence (O00187 298-444 partner limits assumed): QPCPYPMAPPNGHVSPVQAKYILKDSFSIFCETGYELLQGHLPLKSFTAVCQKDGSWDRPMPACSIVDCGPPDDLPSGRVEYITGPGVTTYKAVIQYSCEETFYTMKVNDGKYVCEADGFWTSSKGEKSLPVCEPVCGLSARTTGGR

| SMILES | Ki [nM] |
| --- | --- |
| O=C(Cn1c(-c2ccccc2)cnc(NC(CO)Cc2ccccc2)c1=O)NCc1cc2cnccc2[nH]1 (stereo not shown) [Compound 49, N-((1H-Pyrrolo[3,2-c]pyridin-2-yl)methyl)-2-(3-((1-hydroxy-3-phenylpropan-2-yl)amino)-2-oxo-6-phenylpyrazin-1(2H)-yl)acetamide trifluoroacetate] | < 500 |
| Cc1nc(N)ccc1CNC(=O)Cn1c(-c2ccccc2)ncc(NCCc2ccccc2)c1=O [Compound 6, N-((6-Amino-2-Methylpyridin-3-yl)Methyl)-2-(6-Oxo-5-(Phenethylamino)-2-Phenylpyrimidin-1(6H)-yl)Acetamide] | < 500 |
| O=C(Cn1c(-c2cnn3c2CCCC3)cnc(NCCc2ccccc2)c1=O)NCc1cc2cnccc2[nH]1 [Compound 116, N-((1H-Pyrrolo[3,2-c]pyridin-2-yl)methyl)-2-(2-oxo-3-(phenethylamino)-6-(4,5,6,7-tetrahydropyrazolo[1,5-α]pyridin-3-yl)pyrazin-1(2H)-yl)acetamide] | < 500 |
| Cc1nc(N)ccc1CNC(=O)Cn1c(-c2ccccc2)c(Cl)nc(NCCc2ccccc2)c1=O [Compound 41, N-((6-Amino-2-Methylpyridin-3-yl)Methyl)-2-(5-Chloro-2-Oxo-3-(Phenethylamino)-6-Phenylpyrazin-1(2H)-yl)Acetamide] | 500 to 2500 |
| O=C(Cn1c(-c2ccccc2)cnc(N[C@@H](Cc2ccc(O)cc2)C(=O)O)c1=O)NCc1cc2cnccc2[nH]1 [Compound 119, trifluoroacetate] | < 500 |
| O=C(Cn1c(-c2ccc(C(F)(F)F)cc2)cnc(NCCc2ccccc2)c1=O)NCc1cc2cnccc2[nH]1 [Compound 21, N-((1H-Pyrrolo[3,2-c]Pyridin-2-yl)Methyl)-2-(2-Oxo-3-(Phenethylamino)-6-(4-(Trifluoromethyl)Phenyl)Pyrazin-1(2H)-yl)Acetamide, Trifluoroacetate] | < 500 |
| O=C(Cn1c(-c2ccccc2)cnc(NCC2(c3ccccc3)CCC2)c1=O)NCc1cc2cnccc2[nH]1 [Compound 56, N-((1H-Pyrrolo[3,2-c]pyridin-2-yl)methyl)-2-(2-oxo-6-phenyl-3-(((1-phenylcyclobutyl)methyl)amino)pyrazin-1(2H)-yl)acetamide trifluoroacetate] | < 500 |
| Cc1nc(N)ccc1CNC(=O)Cn1c(-c2ccccc2)cnc(N2CCOCC2)c1=O [Compound 44, N-((6-Amino-2-methylpyridin-3-yl)methyl)-2-(3-morpholino-2-oxo-6-phenylpyrazin-1(2H)-yl)acetamide] | < 500 |
| O=C(Cn1c(-c2ccccc2F)cnc(NCCc2ccccc2)c1=O)NCc1cc2cnccc2[nH]1 [Compound 86, N-((1H-Pyrrolo[3,2-c]Pyridin-2-yl)Methyl)-2-(6-(2-Fluorophenyl)-2-Oxo-3-(Phenethylamino)Pyrazin-1(2H)-yl)Acetamide Trifluoroacetate] | < 500 |
| CC(C)(C)OC(=O)N1CC(n2cc(-c3cnc(NCCc4ccccc4)c(=O)n3CC(=O)NCc3cc4cnccc4[nH]3)cn2)C1 [Compound 111, tert-Butyl 3-(4-(1-(2(((1H-pyrrolo[3,2-c]pyridin-2-yl)methyl)amino)-2-oxoethyl)-6-oxo-5-(phenethylamino)-1,6-dihydropyrazin-2-yl)-1H-pyrazol-1-yl)azetidine-l-carboxylate] | < 500 |
| CC(C)Nc1cnc(NCCc2ccccc2)c(=O)n1CC(=O)NCc1cc2cnccc2[nH]1 [Compound 160] | 2500 to 10000 |
| Cc1ccc(C2(CNc3ncc(-c4ccccc4)n(CC(=O)NCc4cc5cnccc5[nH]4)c3=O)CC2)cc1 [Compound 63, N-((1H-Pyrrolo[3,2-c]pyridin-2-yl)methyl)-2-(2-oxo-6-phenyl-3-(((1-(p-tolyl)cyclopropyl)methyl)amino)pyrazin-1(2H)-yl)acetamide trifluoroacetate] | < 500 |
| Cc1ccc(CCNc2ncc(-c3ccccc3)n(CC(=O)NCc3cc4cnccc4[nH]3)c2=O)cc1 [Compound 138, N-((1H-Pyrrolo[3,2-c]pyridin-2-yl)methyl)-2-(3-((4-methylphenethyl)amino)-2-oxo-6-phenylpyrazin-1(2H)-yl)acetamide] | < 500 |
